The target in the test is T1, PPARα (Homo sapiens, UniProt Q07869).
T1 construct: made in house; host or cells: Sf9 insect cells (baculovirus), crude cell lysate
T1 sequence (Q07869 1-468): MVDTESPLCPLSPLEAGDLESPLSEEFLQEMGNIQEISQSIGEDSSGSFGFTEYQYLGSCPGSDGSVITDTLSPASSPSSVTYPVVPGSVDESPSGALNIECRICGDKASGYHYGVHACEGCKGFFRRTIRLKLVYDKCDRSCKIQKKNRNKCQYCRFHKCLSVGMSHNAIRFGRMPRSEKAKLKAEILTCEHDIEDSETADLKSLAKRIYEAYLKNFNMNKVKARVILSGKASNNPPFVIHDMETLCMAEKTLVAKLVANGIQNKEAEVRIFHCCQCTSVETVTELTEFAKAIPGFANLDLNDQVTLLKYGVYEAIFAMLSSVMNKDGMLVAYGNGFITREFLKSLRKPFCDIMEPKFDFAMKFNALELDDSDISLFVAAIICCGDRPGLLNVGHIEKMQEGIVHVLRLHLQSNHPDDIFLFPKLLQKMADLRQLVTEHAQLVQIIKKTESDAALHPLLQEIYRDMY
T1 sequence (P19793 1-462 partner): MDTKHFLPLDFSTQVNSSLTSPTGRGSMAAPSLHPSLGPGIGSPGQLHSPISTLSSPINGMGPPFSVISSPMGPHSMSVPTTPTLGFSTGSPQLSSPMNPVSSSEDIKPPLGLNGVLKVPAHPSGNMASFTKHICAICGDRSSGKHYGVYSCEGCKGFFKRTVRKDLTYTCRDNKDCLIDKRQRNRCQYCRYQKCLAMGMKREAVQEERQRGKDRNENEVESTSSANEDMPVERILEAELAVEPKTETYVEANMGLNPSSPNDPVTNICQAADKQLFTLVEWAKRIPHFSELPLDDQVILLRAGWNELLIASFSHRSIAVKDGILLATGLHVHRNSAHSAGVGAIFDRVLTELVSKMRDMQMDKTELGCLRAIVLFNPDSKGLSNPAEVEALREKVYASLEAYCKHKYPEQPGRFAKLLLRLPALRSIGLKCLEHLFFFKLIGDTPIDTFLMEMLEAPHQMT
Put plainly: PPAR alpha binding assay (SPA). The note with it: tritiated GW2331, n=3, read-out: Ki PPAR α binding. From the text:
The nucleotide sequences encoding full-length PPARα receptor DNA (National Center for Biotechnology Information (NCBI) Reference Sequence NM_005036.4), PPARδ receptor DNA (NCBI Reference Sequence NM_006238.4), PPARγ receptor DNA (NCBI Reference Sequence NM_015869.4) and Retinoid X Receptor (RXR) α DNA (NCBI Reference Sequence NM_002957.4) are synthesized and inserted into pFastBacHTb (Invitrogen) vector in-framed with the N-terminal HIS tag from the vector. […] The protein concentration is determined by Bradford assay using BSA as the standard.
Binding Affinities of Compounds for the PPAR α, δ, γ Receptors are Assessed Using Scintillation Proximity Assay (SPA) Technology.
Biotinylated oligonucleotide(DR2) ^5′[…]^3′ (SEQ ID NO: 1) is used for binding of receptors to Yttrium silicate streptavidin-coated SPA beads (Perkin Elmer). The PPAR α, δ, γ and Retinoid X Receptor (RXR) α receptors (endogenously expressed as heterodimers) are cell lysates from Baculovirus expression systems in Sf9 cells. […] Non-specific binding is determined in the presence of 10000 nM unlabeled GW2331 (Kliewer, S. A. et al Proc. Natl. Acad. Sci. USA (1997), 94: 4318-4323) for the alpha and delta receptors and 2-methyl-2-[4-[3-[propyl[(5-pyridin-2-ylthiophen-2-yl)sulfonyl]amino]-propyl]phenoxy]propanoic (WO 2004/073606) for the gamma receptor. […]

The Ki is a measure of affinity in units of concentration, obtained from inhibition or displacement. For the compound `CCCc1c(NC(=O)CC(C)(C)C(=O)[O-])cccc1OCCCOc1cc(O)c(-c2ccc(F)cc2)cc1CC.[Na+]` [Example 2, Sodium 4-[[3-[3-[2-ethyl-4-(4-fluorophenyl)-5-hydroxy-phenoxy]propoxy]-2-propyl-phenyl]amino]-2,2-dimethyl-4-oxo-butanoate], the Ki was roughly 617 nM.

The values above are taken from patent publication US9187411B2, “Leukotriene B4 antagonist compound” (Eli Lilly and Company, priority 2012, dated 2015).
